Laboratory results taken from patent US12396997B2, “Methods of treatment with an iboga alkaloid” (priority 2022, dated 2025).
“And” between values parts separate entries of the source, which are not always exact repeats. Equal values may be shown once. “Also recorded” adds a separate entry of the source.

How the values were obtained:
[1] = system: N-methyl-D-aspartate, kappa and mu opioid, sigma-1 and -2, nicotinic acetylcholine, serotonin transporter, and dopamine transporter; details: literature; cited from earlier work
[2] = system: special operations veterans with history of TBI; test: World Health Organization Disability Assessment Scale 2.0 (WHODAS 2.0); format: in vivo, human; details: for WHODAS 2.0 Subscale Self Care: baseline 5.2% ± 9.2%; for WHODAS 2.0 Subscale Mobility: baseline 14.7% ± 15.7%
Description: (§1) Thirty, male, navy seal or army special forces veterans, ages 33-58 years (mean 44.5 years), were enrolled. Of the 30 participants, 27 were Caucasian, 1 was Hispanic and 2 were Native American. Body mass index was between 17-35 kg/m^2.
(§2) With subjects in the fasting state, an intravenous infusion of 1 gram of magnesium sulfate was administered 1-2 hours prior to treatment. […] Medical staff (MD, RN, or EMT) were onsite at a ratio of at least 1 staff per 2 patients throughout treatment for monitoring and management, but no specific coaching or psychological support was provided during treatment.
(§3) Post treatment, each subject was assessed four days after treatment, one month after treatment, and, if willing, one year after treatment. The post-treatment assessments conducted at four days and at one month after treatment included neuropsychological testing, measures of PTSD, depression, anxiety, mystical experiences, functional imaging and EEG. Post-treatment assessments conducted at one year after treatment included PTSD, depression, and anxiety measures.
World Health Organization Disability Assessment Scale 2.0 (WHODAS 2.0) was used as a measure of function. WHODAS was used to assess the impact of health conditions across six life domains (cognition, mobility, self-care, interpersonal, life activities, and community participation) and it is sensitive to change over time (Gold, L. H., J. Am. Acad. Psychiatry Law 42, 9 (2014). Each item in the assessment is rated on a scale ranging from no problems to extreme problems (Üstün, T. B. et al., Measuring health and disability: Manual for WHO disability assessment schedule WHODAS 2.0. (World Health Organization, 2010)). To capture inter-individual variability in disability the WHODAS complex scoring method was used. Raw scores were converted to a metric ranging from 0 (no disability) to 100 (full disability), by calculating the ratio of the participant's score relative to the maximum possible score in each domain as well as to the total score (Id.). A score of 20%-39% was considered mild, 40%-59% was moderate, 60%-79% was moderate-severe and 80%-100% was severe. Scores from baseline were compared to scores from one-month post treatment.

[3] = system: special operations veterans with history of TBI; test: CAPS-5 (Clinician-administered PTSD Scale for DSM-5); format: in vivo, human
Description: as §1, §2
as §3, with “measures. […]” for “measures.”

[4] = system: special operations veterans with history of TBI; test: MADRS (Montgomery-Asberg Depression Rating Scale), incl. suicidal ideation item Q10; format: in vivo, human
Description: as §2, §3
MADRS testing provides an indication of depressive symptoms, CAPS-5 provides an indication of PTSD and SIGH-A provides an indication of anxiety. Collectively these overlap to provide indication of mood, concentration, sleep and tension.
The MADRS is a clinician-administered 10-item scale assessing the severity of depression symptoms. […] A total score of 0-6 indicates no depression, 7-19 mild depression, 20-34 moderate depression, 35-59 severe depression, and 60+ very severe depressive symptoms (Müller, M. J., J. Affect. Disord. 77, 255-260 (2003)).

[5] = system: special operations veterans with history of TBI; test: Hamilton Anxiety Rating Scale (HAM-A); format: in vivo, human
Description: as §1, §2
as §3, with “measures. […]” for “measures.”

[6] = system: special operations veterans with history of TBI; test: Safety monitoring during and after ibogaine treatment (adverse events, QTc by ECG); format: in vivo, human
Description: 12 participants (40%) were treated for headache. 7 (23%) for nausea. 3 (10%) for anxiety. 2 (7%) for hypertension, and 1 (3%) for insomnia.
as §2

[7] = system: special operations veterans with history of TBI; test: Structural T1w MRI (FreeSurfer) regional volume and cortical thickness; format: in vivo, human
Description: Structural imaging of the brain was also conducted on some of the subjects of Example 1. Gray matter constitutes about 40% of the brain and white matter constitutes about 60% of the brain. Gray matter contains most of the brain's neuronal cell nodes, it is fully developed once a person reaches their 20's and interprets sensor information from various parts of the body. White matter is made up of bundles which connect various gray matter areas, it develops throughout the 20's and peaks in middle age. Typical metrics analyzed in anatomical (T1-weighted. “T1w”) imaging include volume and/or shape of nuclei (e.g. caudate), volume and/or shape of ventricles of the brain, and cortical thickness (mm). These metrics can be used to study normal and abnormal neuroanatomy and are primarily used to quantify gray matter. A tool called FreeSurfer was applied to images for a T1w structural analysis (volume, cortical thickness) to adjust for bias, remove non-brain matter, segments by tissue, parcels the brain into standardized regions, and provides measurements of those regions. FreeSurfer measurements of whole brain volume, volume by tissue (gray, white, CSF), estimated intracranial volume (ICV), subcortical gray matter volume, cortical volume by region were done. […] In particular, analysis was done to determine if there was any loss in gray matter volume or cortical thickness, whether there was a loss in white matter volume or an increase in presence of white matter […].
The fMRI images were also inspected to determine the difference in volume in regional areas of the brain from baseline to one month after treatment. FIG. 8A is a bar graph showing the effect size of a change in volume in 47 brain regions indicated along the x-axis. […] The fMRI images were also inspected for whole brain thickness at baseline and one month after treatment. […] FIG. 8B is a bar graph showing the effect size of a cortical thickness change for the brain regions indicated along the x-axis, from baseline to one month after treatment. […] The right and left parahippocampal gyrus are involved in visuospatial processing, including scene perception, navigation, and emotional contextualization. The left orbitofrontal gyrus is involved in impulse control and reward valuation. The left insular cortex is associated with both the affective-perceptual and cognitive-evaluative forms of empathy, as well as awareness of hunger, pain and fatigue. The left entorhinal cortex is a widespread network hub for memory, navigation, and perception of time.

[8] = system: special operations veterans with history of TBI; test: Predicted brain age from MRI with brain age model; format: in vivo, human; details: one-month post treatment; FIG. 9D
Source text: A predictive model of normal aging defined using machine learning in healthy individuals, based on magnetic resonance imaging-derived estimates of gray matter and white matter (Id.) was applied to the MRI images from the subjects enrolled in the study of Example 1. […] There was a significant reversal of brain age from baseline to one month after treatment. The mean decrease in brain age was 1.3 years (corrected p=0.03).
At baseline, the brain age estimate for the 24 subjects was 40.89 years. […] The average decrease in brain age from baseline one month after treatment was 1.4 years.

[9] = system: special operations veterans with history of TBI; details: in vivo
[10] = system: brain-derived neurotrophic factor (BDNF) and glial cell line-derived neurotrophic factor (GDNF); details: literature; cited from earlier work
cortical neuron = details: in vitro; literature; cited from earlier work
[11] = orally administered to humans; cited from earlier work
people = details: in vivo; cited from earlier work
[12] = effect size, Baseline vs One-Month
[13] = effect size, Baseline vs Post-Treatment
[14] = following treatment vs baseline

## CC[C@H]1CC2C[C@H]3c4[nH]c5ccc(O)cc5c4CCN(C2)C13 [noribogaine]
[1]
  Affinity for neurotransmitter receptors: moderate-to-weak affinity

## CCC1CC2CC3c4[nH]c5ccc(OC)cc5c4CCN(C2)C13 (stereo not drawn) [ibogaine]
[2]; One-Month, mean, SD 2.9%
  WHODAS 2.0 Subscale Self Care: 1.0% ±
[2]; One-Month, mean, SD 3.3%
  WHODAS 2.0 Subscale Mobility: 1.3% ±
[2]; One-Month, mean, SD 7.9%, baseline 36.1% ± 14.6%
  WHODAS 2.0 Subscale Cognition: 5.0% ±
[2]; One-Month, mean, SD 9.5%, baseline 32.3% ± 20.4
  WHODAS 2.0 Subscale Interpersonal: 4.8% ±
[2]; One-Month, mean, SD 13.1%, baseline 35.6% ± 21.1%
  WHODAS 2.0 Subscale Community Participation: 5.9% ±
[2]; One-Month, mean, SD 16.2%, baseline 41.1% ± 24.8%
  WHODAS 2.0 Subscale Life Activities: 9.1% ±
[2]; Post-Treatment, mean, SD 4.7%
  WHODAS 2.0 Subscale Self Care: 1.9% ±
[2]; Post-Treatment, mean, SD 13.5%
  WHODAS 2.0 Subscale Mobility: 7.2% ±
[2]; [12]
  WHODAS 2.0 Subscale Mobility, D: 0.83
  WHODAS 2.0 Subscale Self Care, D: 0.51
[2]; [13]
  WHODAS 2.0 Subscale Cognition, D: 0.96
  WHODAS 2.0 Subscale Community Participation, D: 0.53
  WHODAS 2.0 Subscale Interpersonal, D: 0.60
  WHODAS 2.0 Subscale Life Activities, D: 0.48
  WHODAS 2.0 Subscale Mobility, D: 0.53
  WHODAS 2.0 Subscale Self Care, D: 0.37
[3]; [14]
  Cohen's D on clinician rated psychiatric assessments (PTSD): > 2
[3]; secondary analyses
  Remission rate for comorbid PTSD: around 80%
[4]; 1-mo. post, mild TBI, N 28, baseline 46%
  Suicidal Ideation (MADR Q10), % Reporting: 7%
[4]; [14]
  Cohen's D on clinician rated psychiatric assessments (depression): > 2
[4]; secondary analyses
  Remission rate for comorbid depression: around 80%
[5]; [14]
  Cohen's D on clinician rated psychiatric assessments (anxiety): > 2
[5]; secondary analyses
  Remission rate for comorbid anxiety: around 80%
[6]; 30 participants, oral ibogaine 12.1±1.2 mg/kg with iv magnesium sulfate, 1.2 mg/kg
  Unexpected or serious treatment-emergent side effects / adverse events: no unexpected or serious treatment-emergent side effects; also recorded: no serious or unexpected adverse events
[6]; continuous 5-lead ECG
  Concerning prolongation of QTc: no instances of a concerning prolongation of QTc
[6]; during oneirogenic effects, 1 participant
  Participants treated for insomnia: 3%
[6]; during oneirogenic effects, 2 participants
  Participants treated for hypertension: 7%
[6]; during oneirogenic effects, 3 participants
  Participants treated for anxiety: 10%
[6]; during oneirogenic effects, 7 participants
  Participants treated for nausea: 23%
[6]; during oneirogenic effects, 12 participants
  Participants treated for headache: 40%
[7]; baseline vs. one month post treatment, two-tailed p = 0.0789
  White matter hypointensities (corrected for cerebral white matter): Two-tailed: no significant differences
[7]; baseline vs. one month post treatment, two-tailed p = 0.0949
  Subcortical Gray Matter volume: Two-tailed: no significant differences
[7]; baseline vs. one month post treatment, two-tailed p = 0.4755
  Total Gray Matter volume: Two-tailed: no significant differences
[7]; baseline vs. one month post treatment, two-tailed p = 0.4847
  Cortical Gray Matter volume: Two-tailed: no significant differences
[7]; one month after treatment vs baseline, two-tailed
  Right hemisphere mean thickness: no significant difference
[7]; one month after treatment vs baseline, two-tailed p=0.7146
  Left hemisphere mean thickness: no significant difference
[8]
  Estimated brain age compared to aiTBS: reducing in estimated brain age
[9]
  Declines across any performance domain: No declines
  Executive functioning effect size D: 0.31-1.22
  Performance change in language (semantic fluency): No significant performance changes
  Phonemic Fluency (D-KEFS Verbal Fluency): 64.0 ± 10.1 T score
  Processing speed effect size D: 0.97-1.34
  Reaction Time (CPT-3 Reaction Time): 44.1 ± 6.8 T score and 46.4 ± 8.1 T score
  Slowing of reaction time effect size D: 0.29-0.52
  Sustained Attention (CPT-3 Hit Reaction Time Block Change): 50.8 ± 7.9 T score and 51.2 ± 7.7 T score
  Sustained attention accuracy (detection) effect size D: 0.86-1.05
  Verbal Memory (HVLT-R): 49.0 ± 9.2 T score
[9]; iv
  Working Memory (WMI (WAIS-IV)): 57.0 ± 9.5 T score
[1]
  Affinity for neurotransmitter receptors: moderate-to-weak affinity
[10]
  Transcription of neurotrophic factors BDNF and GDNF: increases the transcription
Cortical neuron
  Cortical neuron dendritic arbor complexity: increases cortical neuron dendritic arbor complexity
[11]
  half-life: about 7.5 hours
people
  People who may suffer cardiac arrest when treated: Approximately 1 in 300
